US5250541A, “Kynurenic acid derivatives, their preparation and pharmaceutical compositions containing them” (Fidia S.p.A., priority 1989, dated 1993)
Like-named read-outs stand apart in the source and are kept apart here.

Legend:
[1] = tested on: NMDA receptors present on guinea-pig ileum; test: antagonism of glutamate or NMDA actions on guinea-pig ileum; format: cell-based; conditions: guinea-pig terminal ileum; read-out: concentration antagonising 50% of glutamate or NMDA actions
Description: 2) they antagonise in […] way the glutamate effect on NMDA receptors present on guinea-pig ileum: on this test their effect is competitively antagonized by glycine.

[2] = tested on: mouse cerebral cortex slices; test: antagonism of glutamate or NMDA actions on mouse cerebral cortex slices; format: cell-based; conditions: brain slices, read-out: concentration antagonising 50% of glutamate or NMDA actions
Description: (§1) The compounds I were also active in mouse cerebral cortex slices according to Proc. Natl. Acad. Sci. USA 85; 6547-6550--1988, in the prevention of glutamate toxicity in cultured cells and in the prevention of NMDA induced convulsions in mice.

[3] = tested on: cultured cells; test: prevention of glutamate toxicity in cultured cells; format: cell-based
Description: as §1

[4] = molecular target: T1, glycine recognition site of the NMDA receptor-ion channel complex (cortical membranes), UniProt Q05586); test: displacement of labelled glycine from cortical membranes; format: binding; conditions: cortical membranes; read-out: concentration displacing 50% of labelled glycine from its binding sites
T1 construct: from tissue
Description: (§2) 1) they displace labelled glycine from cortical membranes with an EC50 value 5-10 times lower than that of kynurenate;

[5] = tested on: NMDA receptors present on guinea-pig ileum; conditions: guinea-pig myenteric plexus; cited from earlier work
[6] = molecular target: T2, glycine recognition site of the NMDA receptor-ion channel complex (cortical membranes) (Homo sapiens, UniProt Q05586); test: displacement of labelled glycine from cortical membranes; format: binding
T2 construct: from tissue
Description: as §2

O=C(O)c1cc(S)c2ccc(Cl)cc2n1 [7-chloro-4-thiokynurenic acid, 7-chloro-4-thio-quinoline-2-carboxylic acid]
IC50 [1]: 5 µM | IC50 [2]: 5 µM | concentration antagonising the glutamate neurotoxicity [3]: 0.08 µM | IC50 [4]: 1 µM

O=C(O)c1cc(=O)c2ccccc2[nH]1 [kynurenic acid]
antagonistic activity of the glutamate effect [5]: antagonistic activity of the glutamate effect

O=C(O)c1cc(S)c2ccccc2n1 [thiokynurenic acid, 4-thio-quinoline-2-carboxylic (thiokynurenic) acid]
mode of action at the glycine receptors [6]: competitive antagonists of the glycine receptors | mode of action at the glycine receptors ([6]; listed as 4thiokynurenic acid): competitive antagonists of a particular kind of glycine receptors
